How the values were obtained:
Test in all cases: Greenhouse whole-plant imazapir dose response (Example 8)
Assay type in all cases: in vivo, Helianthus annuus
[1] = system: sunflower GIM 5-6 (Restorer Line, A122T); conditions: GIM5-6, 14 DAT
Method: (§1) A greenhouse study was conducted to quantify and contrast the imazapir sensitivity of the mutants A122T and A205V in different genetic backgrounds at the whole plant level in sunflower. Seeds of the different sunflower lines that were used in this study were obtained under field conditions.
(§2) Seeds were sown in Petri dishes and, after germination, plantlets were transplanted to pots of 10 cm of diameter in a potting media consisting of equal parts of vermiculite, soil and sand. Plants were grown in a greenhouse under natural light conditions supplemented with 400 W sodium halide lamps to provide a 16 hrs daylength. Day/night temperatures were 25 and 20° C., respectively. At the V2 stage 10 plants of each genotype were randomly assigned to each treatment consisting of […] imazapir doses (0, 40, 80, 160, 240, 320, 400 and 480 g ai/ha), and a zero-time biomass determination. Experiment was arranged as a randomized block design with a full factorial (sunflower line×treatment) arrangement of treatments and 10 replications.
(§3) On the day of herbicide application ten plants of each genotype were cut at the cotyledonal node and dried at 60° C. for 48 hrs zero-time for dried weight determination. […] Height was determined as the distance between the cotyledonal node and the apex of each plant. For root biomass determination, each plant was taken from the pot and the potting media was washed out from the roots. Above ground biomass data from each line were converted to biomass accumulation after application by subtracting the appropriate average zero-time biomass from each sample. Dry biomass data were converted to percentages of the untreated control plants within each line to allow direct comparisons between groups.

[2] = system: sunflower IR79 (Restorer Line, A205V); conditions: 14 DAT
Method: as §1, §2, §3

[3] = system: sunflower TH1 (Hybrid, A205V); conditions: 14 DAT
Method: as §1, §2, §3

CC(C)C1(C)N=C(c2ncccc2C(=O)O)NC1=O (stereo not shown) [imazapir, imazapyr]
biomass accumulation (dry biomass, % of untreated) ([1]; 0.5× (40 g ai/ha)): 100.0% | plant height (% of untreated) ([1]; 0.5× (40 g ai/ha)): 100.0% | root dry weight (% of untreated) ([1]; 0.5× (40 g ai/ha)): 100% | biomass accumulation (dry biomass, % of untreated) ([1]; 1× (80 g ai/ha)): 96.4% | plant height (% of untreated) ([1]; 1× (80 g ai/ha)): 100.0% | root dry weight (% of untreated) ([1]; 1× (80 g ai/ha)): 88.0% | biomass accumulation (dry biomass, % of untreated) ([1]; 2× (160 g ai/ha)): 97.7% | plant height (% of untreated) ([1]; 2× (160 g ai/ha)): 99.1% | root dry weight (% of untreated) ([1]; 2× (160 g ai/ha)): 90.0% | biomass accumulation (dry biomass, % of untreated) ([1]; 3× (240 g ai/ha)): 95.8% | plant height (% of untreated) ([1]; 3× (240 g ai/ha)): 98.1% | root dry weight (% of untreated) ([1]; 3× (240 g ai/ha)): 98.0% | biomass accumulation (dry biomass, % of untreated) ([1]; 4× (320 g ai/ha)): 90.8% | plant height (% of untreated) ([1]; 4× (320 g ai/ha)): 91.0% | root dry weight (% of untreated) ([1]; 4× (320 g ai/ha)): 80.0% | biomass accumulation (dry biomass, % of untreated) ([1]; 5× (400 g ai/ha)): 81.9% | plant height (% of untreated) ([1]; 5× (400 g ai/ha)): 94.3% | root dry weight (% of untreated) ([1]; 5× (400 g ai/ha)): 80.0% | biomass accumulation (dry biomass, % of untreated) ([1]; 6× (480 g ai/ha)): 78.0% | plant height (% of untreated) ([1]; 6× (480 g ai/ha)): 85.8% | root dry weight (% of untreated) ([1]; 6× (480 g ai/ha)): 65.8% | biomass accumulation (dry biomass, % of untreated) ([2]; 0.5× (40 g ai/ha)): 94.4% | plant height (% of untreated) ([2]; 0.5× (40 g ai/ha)): 92.8% | root dry weight (% of untreated) ([2]; 0.5× (40 g ai/ha)): 98.6% | biomass accumulation (dry biomass, % of untreated) ([2]; 1× (80 g ai/ha)): 74.0% | plant height (% of untreated) ([2]; 1× (80 g ai/ha)): 80.9% | root dry weight (% of untreated) ([2]; 1× (80 g ai/ha)): 53.4% | biomass accumulation (dry biomass, % of untreated) ([2]; 2× (160 g ai/ha)): 67.7% | plant height (% of untreated) ([2]; 2× (160 g ai/ha)): 74.9% | root dry weight (% of untreated) ([2]; 2× (160 g ai/ha)): 42.5% | biomass accumulation (dry biomass, % of untreated) ([2]; 3× (240 g ai/ha)): 49.1% | plant height (% of untreated) ([2]; 3× (240 g ai/ha)): 55.7% | root dry weight (% of untreated) ([2]; 3× (240 g ai/ha)): 38.4% | biomass accumulation (dry biomass, % of untreated) ([2]; 4× (320 g ai/ha)): 44.5% | plant height (% of untreated) ([2]; 4× (320 g ai/ha)): 52.8% | root dry weight (% of untreated) ([2]; 4× (320 g ai/ha)): 31.5% | biomass accumulation (dry biomass, % of untreated) ([2]; 5× (400 g ai/ha)): 40.1% | plant height (% of untreated) ([2]; 5× (400 g ai/ha)): 41.7% | root dry weight (% of untreated) ([2]; 5× (400 g ai/ha)): 23.3% | biomass accumulation (dry biomass, % of untreated) ([2]; 6× (480 g ai/ha)): 35.3% | plant height (% of untreated) ([2]; 6× (480 g ai/ha)): 33.2% | root dry weight (% of untreated) ([2]; 6× (480 g ai/ha)): 21.9% | Phytotoxicity Index ([3]; 0.5× (40 g ai/ha)): 0 | biomass accumulation (dry biomass, % of untreated) ([3]; 0.5× (40 g ai/ha)): 95.0% | plant height (% of untreated) ([3]; 0.5× (40 g ai/ha)): 99.5% | root dry weight (% of untreated) ([3]; 0.5× (40 g ai/ha)): 79.4% | Phytotoxicity Index ([3]; 1× (80 g ai/ha)): 0 | biomass accumulation (dry biomass, % of untreated) ([3]; 1× (80 g ai/ha)): 89.6% | plant height (% of untreated) ([3]; 1× (80 g ai/ha)): 99.5%

— patent US20150176022A1, “HERBICIDE-RESISTANT SUNFLOWER PLANTS, POLYNUCLEOTIDES ENCODING HERBICIDE=RESISTANT ACETO HYDROXY ACID SYNTHASE LARGE SUBUNIT PROTEINS, AND METHODS OF USE” (priority 2013, published 2015)
